The source of these data is patent US12528803B2, “Inhibitors of αvβ6 integrin” (Morphic Therapeutic, Inc., priority 2018, dated 2026).

By Papp A→B is commonly meant the apparent permeability from the apical to the basolateral side of a cell layer.

Bounds are passed on as bounds.

The nature of data set [1]: MDCK in vitro permeability assay (wild type MDCK cells, no inhibitor). In kind it is in vitro ADME, Canine. As to conditions: dog, no Pgp inhibitor, apical to basolateral (A→B). The method, then: (§1) Compounds were tested for permeability in an MDCK permeability assay. This assay measures the ability of compounds to cross a layer of Madin-Darby Canine Kidney (MDCK) cells from the apical to basolateral side (A→B). This measurement is predictive of the ability of compounds to be absorbed in the gut following oral dosing, an essential characteristic of an orally administered small molecule integrin inhibitor drug.
(§2) The assay is run in two formats. One uses wild type MDCK cells with no inhibitor. This method works well in determining the passive permeability of compounds with low efflux by P-glyocprotein (Pgp), and was used to assess permeability of a Reference Compound having the chemical formula shown below.
(§3) Cell Culture and Maintenance: • Cell stock cultures (MDCK or MDCK MDR1) are maintained in MEM+10% FBS+1% NEAA, grown in 75 cm^2 tissue culture treated flasks and split (passed) 2 times weekly to maintain desired confluence. • For maintenance passage: trypsinized cells are routinely distributed into new flasks at a standard passage ratio of 1:20.
(§4) Seeding assay plates: MDCK assay plates are seeded with MDCK or MDCK MCR1 cells 3-4 days prior to running the assay. 24-well plates are seeded at a cell density of 0.88×10^5/well in a 400 μL apical chamber volume (2.2×10^5/mL) with a […] volume of growth medium to the 24-well basal chamber. […]

Data set [2] deals with Madin-Darby Canine Kidney (MDCK) cells. The description is as above. Type of data set: in vitro ADME. The conditions noted are these: no Pgp inhibitor, apical to basolateral (A→B). The method, then:
as §1, §2, §3, §4

In data set [1], `O=C(O)CN1CCC(C(=O)N2CCC(c3ccc4c(n3)NCCC4)CC2)CC1` [Reference Compound] showed an apparent permeability from apical to basolateral (Papp A→B) at 90 min, 5 μM of less than 0.23 ×10⁻⁶ cm/s. Also, the “MDCK (A->B)” value in data set [2] is “less than 0.23”.
